Experimental findings from PMC5949855 (2015) are described below.

For assay [1], the system named is HT21 (DNA, G4) GGGTTAGGGTTAGGGTTAGGG
The experiment in a line: ITC. To be noted: for K a1: two-event model, high-affinity site.

Assay [2] shares this test system. The experiment in a line: UV melting. To be noted: NH4+ 30 mM, compound concentration not given in material.
Assay [3] shares this test system. In words: UV melting, 295 nm. To be noted: no monovalent cation added; compound concentration not given in material.
Assay [4] has as its system L-HT21 (L-DNA, G4, all nucleotides L-DNA (enantiomer of HT21)) GGGTTAGGGTTAGGGTTAGGG
The experiment in a line: CD. To be noted: NH4+ 30 mM; mirror image CD of the HT21 complex.

[5] abbreviates: NH4+ 30 mM, 20 mM MOPS pH 6.5, 298 K.
Where [6] appears, read: value given for CuL1-CuL4 together.

For `Cc1ccc(-c2cc(-c3ccccn3)nc(-c3ccccn3)c2)cc1.O=[N+]([O-])[O-].O=[N+]([O-])[O-].[Cu+2]`, the Ka entry in assay [1] (NH4+ 30 mM, 20 mM MOPS pH 6.5, 298 K, one-event binding model) was “(2.0 ± 0.5) × 10^5 M^–1”. For the same compound, the ΔTm in assay [2] was ~ 10 °C.
Consider `O=[N+]([O-])[O-].O=[N+]([O-])[O-].[Cu+2].c1ccc(-c2cc(-c3ccc(OCCN4CCOCC4)cc3)cc(-c3ccccn3)n2)nc1`, for which the “K a1” value in assay [1] (setting [5]) is “(1.7 ± 0.3) × 10^7 M^–1”. Moreover, in assay [2] (setting [6]), the ΔTm is ~ 20 °C.
Consider `O=[N+]([O-])[O-].O=[N+]([O-])[O-].[Cu+2].c1ccc(-c2cc(-c3ccc(OCCN4CCCCC4)cc3)cc(-c3ccccn3)n2)nc1`, for which the “K a1” value in assay [1] (setting [5]) is on record as “(1.7 ± 0.3) × 10^7 M^–1”. Further, the ΔTm in assay [2] (setting [6]) was ~ 20 °C.
For the compound `O=[N+]([O-])[O-].O=[N+]([O-])[O-].[Cu+2].c1ccc(-c2cccc(-c3ccccn3)n2)nc1`, the binding result in assay [1] (NH4+ 30 mM, 20 mM MOPS pH 6.5, 298 K, affinity too low to be determined) is “weak”. Further, the ΔTm in assay [2] was ~ 5 °C.
For `CN(C)CCOc1ccc(-c2cc(-c3ccccn3)nc(-c3ccccn3)c2)cc1.O=[N+]([O-])[O-].O=[N+]([O-])[O-].[Cu+2]`, the “K a1” value in assay [1] (setting [5]) is given as “(1.7 ± 0.3) × 10^7 M^–1”. In assay [2] (setting [6]), the ΔTm was ~ 20 °C.
As to `O=[N+]([O-])[O-].O=[N+]([O-])[O-].[Cu+2].c1ccc(-c2cc(-c3ccc(OCCN4CCCC4)cc3)cc(-c3ccccn3)n2)nc1`, the ΔTm in assay [3] was ~ 13 °C; in assay [2] (setting [6]), ~ 20 °C. In addition, the “K a1” value in assay [1] (setting [5]) is reported as “(1.7 ± 0.2) × 10^7 M^–1”. Besides, the Ka entry in assay [1] (no monovalent cation added, 298 K, three-event model, first (strongest) event) was “(1.5±0.6)E8 M^-1”. Also, the binding result in assay [4] is “yes”.
